Data from patent publication US9387246B2, “Treatment methods for rheumatoid arthritis” (priority 2013, dated 2016).
Where two headings read alike, the source gives them in different places.

How the values were obtained:
[1] = tested on: Rheumatoid arthritis patients; experiment: Change in VECTRA DA Score after treatment (Example 2); format: in vivo, human; conditions: Patient 6; treatment August 2012-June 2013; score February 2013
Text: VECTRA® DA test is a multi-biomarker disease activity (MBDA) blood test sold by Crescendo Bioscience. The test provides a quantitative assessment of rheumatoid arthritis disease activity in patients by using twelve protein biomarkers—Vascular Cell Adhesion Molecule 1 (VCAM-1), Epidermal Growth Factor (EGF), Vascular Endothelial Growth Factor A (VEGF-A), Interleukin-6 (IL-6), Tumor Necrosis Factor Receptor Type 1 (TNFR1), Matrix Metalloproteinase-1 (MMP-1), Matrix Metalloproteinase-3 (MMP-3), YKL-40, Leptin, Resistin, Serum Amyloid A (SAA), and C-Reactive Protein (CRP). The twelve biomarkers in VECTRA® DA test are relevant to key aspects of the pathophysiology of RA. Li et al., Curr. Med. Res. & Opin. 29(1): 85-92 (2013). The test measures the concentrations of the biomarkers and provides the concentrations and percentile (RA percentile) value for each biomarker. […]
(§1) The patients were treated with the selected treatment methods for at least five months and the post-treatment biomarker levels and VECTRA DA Score were determined by VECTRA® DA test along with CRP level and ESR. The change is VECTRA DA Score, CRP level and ESR was determined to determine the change in disease activity and effectiveness of the selected treatment method.

[2] = tested on: Rheumatoid arthritis patients; experiment: Treatment outcome (effectiveness, clinical course) of treatment methods (Example 2); format: in vivo, human; conditions: Patient 9; ACTEMRA from May 2012 not algorithm-selected; MTX added October 2012, based on ESR and CRP level
Protocol: as §1

[3] = tested on: Rheumatoid arthritis patients; experiment: Change in VECTRA DA Score after treatment, longer duration (Example 3); format: in vivo, human
Protocol: Sixteen rheumatoid arthritis patients were selected for treatment by treatment methods that were selected using the algorithm disclosed herein. Some patients were the same as the patients discussed under Example 2. Example 3, however, tracks patients' responses to treatment for a longer duration and uses VECTRA DA Score to determine effectiveness of the treatment.
VECTRA® DA test was conducted for each patient to determine serum levels of the all the biomarkers and VECTRA DA Score in each patient before treatment. The collection of patients closely resembles the random patient population available nationwide as shown by a comparison of the distribution of VECTRA DA Scores in FIG. 6, as noted under Example 2.
The patients were treated with the selected treatment methods and the post-treatment biomarker levels and VECTRA DA Score were determined by VECTRA® DA test. The change is VECTRA DA Score was determined to determine the change in disease activity and effectiveness of the selected treatment method.
The treatment method (one method or a combination of methods) was determined to be effective when the post-treatment disease activity was lower than the pre-treatment disease activity in the patient: when VECTRA DA Score was lower than the pre-treatment VECTRA DA Score. Specifically, the treatment method was determined to be effective when the post-treatment disease activity was at least 20% lower than the pre-treatment disease activity, or when the VECTRA DA Score is decreased to a lower disease activity level after the treatment (i.e., from high to moderate, or high to low, or moderate to low).

[4] = tested on: Rheumatoid arthritis patients; format: in vivo, human
Text: A treatment method administered to a patient may be a combination of one or more treatment methods.

[5] = tested on: Rheumatoid arthritis patients; experiment: VECTRA DA test: serum levels of biomarkers, % elevation over control (InFoRM study); format: in vivo, human
Text: VECTRA® DA test is a multi-biomarker disease activity (MBDA) blood test sold by Crescendo Bioscience. The test provides a quantitative assessment of rheumatoid arthritis disease activity in patients by using twelve protein biomarkers—Vascular Cell Adhesion Molecule 1 (VCAM-1), Epidermal Growth Factor (EGF), Vascular Endothelial Growth Factor A (VEGF-A), Interleukin-6 (IL-6), Tumor Necrosis Factor Receptor Type 1 (TNFR1), Matrix Metalloproteinase-1 (MMP-1), Matrix Metalloproteinase-3 (MMP-3), YKL-40, Leptin, Resistin, Serum Amyloid A (SAA), and C-Reactive Protein (CRP). The twelve biomarkers in VECTRA® DA test are relevant to key aspects of the pathophysiology of RA. Li et al., Curr. Med. Res. & Opin. 29(1): 85-92 (2013). The test measures the concentrations of the biomarkers and provides the concentrations and percentile (RA percentile) value for each biomarker.
The VECTRA DA MBDA test uses Meso Scale Discovery (MSD, Gaithersburg, Md., USA) sandwich immunoassay electrochemiluminescent technology to measure biomarker levels. Eastman et al., J. of Pharmaceutical and Biomedical Analysis 70: 415-424 (2012). In the immunoassay, capture antibodies are spotted on carbon electrodes in a planar array and detection antibodies are labeled with an electrochemiluminescent ruthenium reporter. Id. Upon electrical stimulation, light is produced from reporter molecules bound to the electrode to determine biomarker concentration.

VCAM-1 = conditions: literature 1990-2012, ACR abstracts 2006-2013; cited from earlier work
VEGF-A = conditions: literature 1990-2012, ACR abstracts 2006-2013; cited from earlier work
IL-6 = conditions: literature 1990-2012, ACR abstracts 2006-2013; cited from earlier work
TNFR1 = tested on: TNFR1; parameters: key: Y: biomarkers that are known to be positively affected by a treatment method (i.e., biomarkers that are known to have a favorable response to a treatment method); N: biomarkers that are not known to be positively affected by a treatment method (i.e., biomarkers that are known to have an unfavorable response to a treatment method); biomarkers that are known to be positively affected by a ORENCIA, the brand name of Atabacept; conditions: literature 1990-2012, ACR abstracts 2006-2013; cited from earlier work
MMP-1 = conditions: literature 1990-2012, ACR abstracts 2006-2013; cited from earlier work
MMP-3 = conditions: literature 1990-2012, ACR abstracts 2006-2013; cited from earlier work
YKL-40 = conditions: literature 1990-2012, ACR abstracts 2006-2013; cited from earlier work
Leptin = conditions: literature; Leptin usable as biomarker only in patients with 15% or less body fat; cited from earlier work
Resistin = conditions: literature 1990-2012, ACR abstracts 2006-2013; cited from earlier work
SAA = conditions: literature 1990-2012, ACR abstracts 2006-2013; cited from earlier work
CRP = conditions: literature 1990-2012, ACR abstracts 2006-2013; cited from earlier work

Tocilizumab [TOCL]
VECTRA DA Score - Decreased by [1]: Decreased by 24 | Treatment Outcome [2]: Not effective | Arthritis activity class of VECTRA DA Score ([3]; Patient 6, February 2013): high (a VECTRA DA Score of >44 reflects high disease activity) | Arthritis activity class of VECTRA DA Score ([3]; Patient 6, October 2012): high (a VECTRA DA Score of >44 reflects high disease activity) | VECTRA DA Score ([3]; Patient 6, October 2012, ACTEMRA 4 mg/kg): 54 | Treatment Outcome ([4]; Patient 6): Effective, based | Conventional markers of inflammation - ESR and CRP level ([4]; Patient 6, while on ACTEMRA): normalized | Adverse reaction ([4]; in vivo): allergic reaction | Toxicity for which the treatment was excluded ([4]; in vivo): bone marrow | IL-6 elevated level ([5]; Patient 6, February 2013): >99% | MMP-3 elevated level ([5]; Patient 6, February 2013): 61% | Resistin elevated level ([5]; Patient 6, February 2013): 70% | IL-6 elevated level ([5]; Patient 6, October 2012): >99% | MMP-3 elevated level ([5]; Patient 6, October 2012): 88% | Resistin elevated level ([5]; Patient 6, October 2012): 57% | TNF-R1 elevated level ([5]; Patient 6, October 2012): 45% | VCAM-1 positively affected by treatment method (VCAM-1): N | VEGF-A positively affected by treatment method (VEGF-A): Y | IL-6 positively affected by treatment method (IL-6): Y | TNFR1 positively affected by treatment method (TNFR1): N | MMP-1 positively affected by treatment method (MMP-1): Y | MMP-3 positively affected by treatment method (MMP-3): Y | YKL-40 positively affected by treatment method (YKL-40): Y | Leptin positively affected by treatment method (Leptin): N | Resistin positively affected by treatment method (Resistin): N | SAA positively affected by treatment method (SAA): Y | CRP positively affected by treatment method (CRP): Y
